By CC50 is commonly meant the concentration giving 50% cytotoxicity. As usually defined, the IC50 is the midpoint of a concentration-inhibition curve. As a reminder, the Ki is a dissociation constant, usually derived from enzyme kinetics or from competition with a known ligand. The AC50 is the midpoint of the concentration-response curve, whichever way the signal moves. The term EC50 denotes the concentration needed to bring the measured effect to its halfway point.

The source made the active and inactive calls. Some results are limits rather than exact numbers.

A short description of test [1]: viability loss in Vero cells – cytotoxicity control for Vif-APOBEC3G degradation inhibitor project, dose response (AID 1117358). To be noted: Vero. The class given is functional.
Test [2] is described as follows: A Cell Based Secondary Assay To Explore Cytotoxicity of Compounds that Sensitize Mycobacterium Tuberculosis to Beta-Lactam Antibiotics. The class given is functional.
Test [3] in a line: viability loss in THP-1 monocytes – THP-1 cells, cytotoxicity control for Vif-APOBEC3G degradation inhibitor project, dose response (AID 1117359). Type of test: functional. Particulars: THP-1.
Test [4] can be described thus: Luminescence-based cell-based high throughput dose response assay to identify activators of the DAF-12 from the parasite S. stercoralis (ssDAF-12). The class given is functional.
Test [5] concerns the target T1, fMet-Leu-Phe receptor (Homo sapiens, UniProt P21462).
T1 sequence (P21462 whole entry): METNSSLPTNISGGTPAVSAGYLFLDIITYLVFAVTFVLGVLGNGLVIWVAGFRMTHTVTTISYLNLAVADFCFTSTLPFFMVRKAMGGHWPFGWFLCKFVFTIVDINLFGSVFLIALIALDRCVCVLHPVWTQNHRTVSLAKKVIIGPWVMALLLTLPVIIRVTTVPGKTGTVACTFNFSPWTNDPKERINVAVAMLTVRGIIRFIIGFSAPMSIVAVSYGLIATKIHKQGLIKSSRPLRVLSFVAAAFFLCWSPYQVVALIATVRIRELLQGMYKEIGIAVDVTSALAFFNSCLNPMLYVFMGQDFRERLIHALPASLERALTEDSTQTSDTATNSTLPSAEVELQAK
Put plainly: formyl peptide receptor binders – dose response (AID 519). Type of test: functional.

Test [6] has as its target Prothrombin (Homo sapiens, UniProt P00734). The test can be described thus: Thrombin 1536 HTS Dose Response Confirmation. [Related pubchem assays: 1046 (Thrombin 1536 HTS; hits were confirmed in this assay)]. The class given is functional.
Test [7] can be described thus: HIV-1 Vif–A3G interaction blockers – biochemical, TR-FRET, GST-Vif 1-94, biotin-A3G peptide, dose response retest, primary screen (AID 1117319).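 Further: TR-FRET signal of purified GST-Vif binding a biotinylated A3G peptide; inhibitors lower the FRET signal by blocking Vif and A3G binding.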 The class given is functional. Background: Time-resolved FRET reads energy transfer from a long-lived donor to a nearby acceptor.
Test [8] has as its target T2, Caspase-6 (Homo sapiens, UniProt P55212).
T2 sequence (P55212 whole entry): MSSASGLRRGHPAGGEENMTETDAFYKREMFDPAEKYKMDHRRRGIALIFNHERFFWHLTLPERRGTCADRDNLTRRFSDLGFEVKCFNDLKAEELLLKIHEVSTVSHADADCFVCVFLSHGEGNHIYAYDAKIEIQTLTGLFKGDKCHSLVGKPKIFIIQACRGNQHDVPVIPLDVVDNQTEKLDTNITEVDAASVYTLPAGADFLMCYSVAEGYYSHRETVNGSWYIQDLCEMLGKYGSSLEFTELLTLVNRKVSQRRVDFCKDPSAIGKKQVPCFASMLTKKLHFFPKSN
The test can be described thus: inhibition of CASP6 peptide cleavage – biochemical, VEID-R110 fluorescence, cherry-pick, dose response (AID 720632).

For test [9], the system named is INS1. Put plainly: INS-1E survival protection against cytokine death – cell-based, luminescence, retest, dose response (AID 449756).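 Further: cell death triggered by IL-1 beta plus TNF-alpha plus IFN-gamma mixture; protective hits raise ATP signal compared with cytokine alone wells.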 To be noted: Rattus norvegicus. The class given is functional.
Test [10] in a line: HEK-293T viability loss after treatment – luminescence, T-cell screen hits, cytotoxicity control for TCR NF-kB inhibitor project, dose response (AID 489026).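 Further: cells exposed to compound about 14 hours before the viability readout.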 The class given is functional, cell-based.
Test [11] concerns the target T3, COUP transcription factor 2 (Homo sapiens, UniProt P24468).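 Further: HEK293 cells transiently cotransfected with COUP-TFII expression vector and reporter; luciferase reporter luminescence driven by COUP-TFII from the pX2-168 reporter plasmid.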
T3 sequence (P24468 whole entry): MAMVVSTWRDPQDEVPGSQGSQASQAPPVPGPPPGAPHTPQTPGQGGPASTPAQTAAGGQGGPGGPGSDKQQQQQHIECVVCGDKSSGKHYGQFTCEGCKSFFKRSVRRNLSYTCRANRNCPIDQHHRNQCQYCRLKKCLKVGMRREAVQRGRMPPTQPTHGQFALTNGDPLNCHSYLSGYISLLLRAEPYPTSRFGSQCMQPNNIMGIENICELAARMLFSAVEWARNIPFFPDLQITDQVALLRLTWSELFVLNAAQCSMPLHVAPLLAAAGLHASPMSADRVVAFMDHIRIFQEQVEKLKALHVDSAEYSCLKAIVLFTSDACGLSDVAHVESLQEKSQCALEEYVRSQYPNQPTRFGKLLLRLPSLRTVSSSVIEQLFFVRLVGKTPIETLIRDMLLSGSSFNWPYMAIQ
The test can be described thus: Luminescence-based cell-based high throughput dose response assay to identify inhibitors of COUP-TFII (NR2F2). The class given is functional.

The target in test [12] is Nonstructural protein 1 (Influenza A virus, UniProt Q194T2). Type of test: functional, Influenza A virus (A/California/07/2009(H1N1)).
Test [13] concerns the target Induced myeloid leukemia cell differentiation protein Mcl-1 (Homo sapiens, UniProt Q07820). The class given is functional.
A short description of test [14]: cells. The class given is functional, cell-based.
Test [15] is described as follows: cells. The class given is functional, cell-based. The source holds these as a separate data set.
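Wherever EC50 is given: agonist potency from rise in intracellular calcium fluorescence.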

Induced myeloid leukemia cell differentiation protein Mcl-1, sequence (Q07820 whole entry): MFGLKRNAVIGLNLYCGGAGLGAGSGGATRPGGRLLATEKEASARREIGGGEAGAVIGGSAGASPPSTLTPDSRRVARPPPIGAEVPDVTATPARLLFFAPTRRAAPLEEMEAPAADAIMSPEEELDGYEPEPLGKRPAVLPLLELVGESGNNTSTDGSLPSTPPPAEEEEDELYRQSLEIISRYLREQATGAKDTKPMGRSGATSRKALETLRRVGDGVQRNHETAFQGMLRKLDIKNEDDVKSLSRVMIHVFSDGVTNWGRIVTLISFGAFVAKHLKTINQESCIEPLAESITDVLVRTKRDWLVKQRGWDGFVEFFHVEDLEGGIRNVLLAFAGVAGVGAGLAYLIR
Nonstructural protein 1, sequence (Q194T2 whole entry): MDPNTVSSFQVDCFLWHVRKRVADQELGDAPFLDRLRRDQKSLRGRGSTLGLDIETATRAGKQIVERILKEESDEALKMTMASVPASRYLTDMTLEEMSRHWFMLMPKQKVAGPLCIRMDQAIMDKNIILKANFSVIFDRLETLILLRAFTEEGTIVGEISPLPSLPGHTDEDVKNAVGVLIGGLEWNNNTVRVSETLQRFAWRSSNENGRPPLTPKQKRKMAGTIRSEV

Regarding `Cc1c(C=O)c(C=O)c(C)n1Cc1ccccc1`, the values for the half-maximal cytotoxic concentration (CC50) in test [1] and in [2] were 6.52 µM (active) and 4.47 µM (active), respectively.

For `Clc1ccc(/C(Cc2nc3ccccc3[nH]2)=N\Nc2ccccc2)cc1`, the CC50 in [3] was > 40 µM (active). `CCC(C)N1C(=O)/C(=C\c2ccc(N3CCCCCC3)cc2)C(=O)NC1=S` (stereo unspecified): in test [4], the IC50 was > 67.5 µM (inactive). As to `C=CCOc1ccc(C2C(C(=O)c3ccco3)=C(O)C(=O)N2Cc2cccnc2)cc1` (stereo unspecified), the inhibition constant (Ki) in test [5] was 9.7 µM (active). With `CCC(=O)Oc1ccc2c(C)c(Cl)c(=O)oc2c1`, in test [6], the IC50 is > 50 µM (not active).

In the case of `CC(=O)Nc1ccc(S(=O)(=O)n2cnc3cc(C)c(C)cc32)cc1`, the IC50 in test [6] is > 50 µM (not active). Turning to `O=C1c2ccccc2C(=O)N1CCC(c1ccc(F)cc1)c1ccco1` (stereo unspecified), the IC50 in test [7] was > 100 µM (active). Consider `COCCN(C(=O)c1cc2c(s1)CCC2)c1c(N)n(CC(C)C)c(=O)[nH]c1=O`, for which the half-maximal activity concentration (AC50) in test [8] was 22.4 µM (active).

Take `c1ccc(CCc2nn3c(C4COc5ccccc5O4)nnc3s2)cc1` (stereo unspecified): the CC50 in [3] was > 40 µM (active). On to `COC(=O)c1c(NC(=O)CC2NCCNC2=O)sc2c1CCCC2` (stereo unspecified), for which, in test [1], the CC50 was > 40 µM (active). With `Cc1ccc(S(=O)(=O)NCc2ccncc2)c(C)c1C`, in [9], the AC50 is 2.48 µM (active). Moreover, the IC50 in test [10] is > 80 µM (inactive); in test [11] it was 5.99 µM (active). Consider `O=C(N/N=C/c1cc(Br)c(O)c(Br)c1O)c1cccnc1`, for which the AC50 in test [8] is 22.9 µM (active). Also, in [12], the IC50 is 15.5 µM (active). Take `COc1cc(C2Nc3cccc4cccc(c34)N2)cc(OC)c1OC(C)=O`: the IC50 in [13] is 2.8 µM (active). The CC50 in test [3] was > 40 µM (active). With `O=C(Cn1cnc2c(oc3ccccc32)c1=O)NCCc1ccccc1`, in test [14], the IC50 is > 29.9 µM (inactive). The EC50 in [15] was > 29.9 µM (inactive). For `O=C(O)CC1Oc2ccc(Cl)cc2NC1=O` (stereo unspecified), in [5], the Ki was > 66.7 µM (inactive).

These data come from ChEMBL document CHEMBL1201862, “PubChem BioAssay data set” (2004).
